Laboratory results: US9211310B2, “Use of a Chinese medicine composition in preparing medicaments for treating secondary prevention of myocardial infarction” (TASLY PHARMACEUTICAL GROUP CO., LTD, priority 2010, dated 2015)

System: patients after acute myocardial infarction
Experiment: TCM symptom score, total and single (chest pain, chest tightness, short breath, fatigue, palpitation, spontaneous perspiration, pale complexion), same clinical trial
Type: in vivo, human
Parameters: total score of TCM symptom, Mean / total score of TCM symptom, Min / total score of TCM symptom, Max / total score of TCM symptom, Md / change of total score of TCM symptom, Mean / change of total score of TCM symptom, Max / change of total score of TCM symptom, Md: scale not given here
Settings: PP
Description: 3508 patients who were in accordance with the diagnostic standards of AMI for 28 days to 2 years and differentiated as Qi deficiency and blood stagnation syndrome by TCM were studied. 0.5 g Chinese medicine composition prepared by the method of EXAMPLE 1 (Coded as QSYQ) was administrated half an hour after meal, 3 times per day.
They included the overall survival time, angina pectoris score, TCM symptom score and life quality score, where angina pectoris score, TCM symptom score and life quality score were evaluated at randomization, in 1st, 3rd, 6th, 9th, 12th month after treatment and 18th month after follow-up.
The analysis method referred to the angina pectoris score.

[1] = 6 months after treatment-baseline
[2] = 9 months after treatment-baseline

CC(=O)Oc1ccccc1C(=O)O [Control group, aspirine]
change of spontaneous perspiration 0, number of patients [1]: 774 | change of spontaneous perspiration 0, percent of patients [1]: (54.32%) | change of spontaneous perspiration 1, number of patients [1]: 414 | change of spontaneous perspiration 1, percent of patients [1]: (29.05%) | change of spontaneous perspiration 2, number of patients [1]: 88 | change of spontaneous perspiration 2, percent of patients [1]: (6.18%) | change of spontaneous perspiration 3, number of patients [1]: 24 | change of spontaneous perspiration 3, percent of patients [1]: (1.68%) | change of spontaneous perspiration −1, number of patients [1]: 105 | change of spontaneous perspiration −1, percent of patients [1]: (7.37%) | change of spontaneous perspiration −2, number of patients [1]: 20 | change of spontaneous perspiration −2, percent of patients [1]: (1.40%) | change of spontaneous perspiration −3, number of patients [1]: 0 | change of spontaneous perspiration −3, percent of patients [1]: (0.00%) | change of total score of TCM symptom, Max [1]: 19.00 | change of total score of TCM symptom, Md [1]: −3.00 | change of total score of TCM symptom, Mean [1]: −4.11 | change of total score of TCM symptom, Min [1]: −28.00 | distribution of total score of TCM symptom: Medium, number of patients (9 months after treatment): 323 | distribution of total score of TCM symptom: Medium, percentage of patients (9 months after treatment): (22.84%) | distribution of total score of TCM symptom: Mild, number of patients (9 months after treatment): 1088 | distribution of total score of TCM symptom: Mild, percentage of patients (9 months after treatment): (76.94%) | distribution of total score of TCM symptom: Severe, number of patients (9 months after treatment): 3 | distribution of total score of TCM symptom: Severe, percentage of patients (9 months after treatment): (0.21%) | fatigue score 0, % of patients (9 months after treatment): (35.22%) | fatigue score 0, number of patients (9 months after treatment): 498 | fatigue score 2, % of patients (9 months after treatment): (60.61%) | fatigue score 2, number of patients (9 months after treatment): 857 | fatigue score 4, % of patients (9 months after treatment): (3.47%) | fatigue score 4, number of patients (9 months after treatment): 49 | fatigue score 6, % of patients (9 months after treatment): (0.71%) | fatigue score 6, number of patients (9 months after treatment): 10 | pale complexion score 0, number of patients (9 months after treatment): 788 | pale complexion score 0, percent of patients (9 months after treatment): (55.69%) | pale complexion score 1, number of patients (9 months after treatment): 520 | pale complexion score 1, percent of patients (9 months after treatment): (36.75%) | pale complexion score 2, number of patients (9 months after treatment): 101 | pale complexion score 2, percent of patients (9 months after treatment): (7.14%) | pale complexion score 3, number of patients (9 months after treatment): 6 | pale complexion score 3, percent of patients (9 months after treatment): (0.42%) | palpitation score 0, number of patients (9 months after treatment): 496 | palpitation score 0, percent of patients (9 months after treatment): (35.05%) | palpitation score 2, number of patients (9 months after treatment): 782 | palpitation score 2, percent of patients (9 months after treatment): (55.27%) | palpitation score 4, number of patients (9 months after treatment): 122 | palpitation score 4, percent of patients (9 months after treatment): (8.62%) | palpitation score 6, number of patients (9 months after treatment): 15 | palpitation score 6, percent of patients (9 months after treatment): (1.06%) | short breath score 0, % of patients (9 months after treatment): (29.42%) | short breath score 0, number of patients (9 months after treatment): 416 | short breath score 3, % of patients (9 months after treatment): (58.27%) | short breath score 3, number of patients (9 months after treatment): 824 | short breath score 6, % of patients (9 months after treatment): (11.95%) | short breath score 6, number of patients (9 months after treatment): 169 | short breath score 9, % of patients (9 months after treatment): (0.35%) | short breath score 9, number of patients (9 months after treatment): 5 | spontaneous perspiration score 0, number of patients (9 months after treatment): 678 | spontaneous perspiration score 0, percent of patients (9 months after treatment): (47.95%) | spontaneous perspiration score 1, number of patients (9 months after treatment): 652 | spontaneous perspiration score 1, percent of patients (9 months after treatment): (46.11%) | spontaneous perspiration score 2, number of patients (9 months after treatment): 79 | spontaneous perspiration score 2, percent of patients (9 months after treatment): (5.59%) | spontaneous perspiration score 3, number of patients (9 months after treatment): 5 | spontaneous perspiration score 3, percent of patients (9 months after treatment): (0.35%) | total score of TCM symptom, Max (9 months after treatment): 37.00 | total score of TCM symptom, Md (9 months after treatment): 8.00 | total score of TCM symptom, Mean (9 months after treatment): 8.88 | total score of TCM symptom, Min (9 months after treatment): 0.00 | change of fatigue 0, % of patients [2]: (48.12%) | change of fatigue 0, number of patients [2]: 679 | change of fatigue 2, % of patients [2]: (35.65%) | change of fatigue 2, number of patients [2]: 503 | change of fatigue 4, % of patients [2]: (7.94%) | change of fatigue 4, number of patients [2]: 112 | change of fatigue 6, % of patients [2]: (1.28%) | change of fatigue 6, number of patients [2]: 18 | change of fatigue −2, % of patients [2]: (6.52%) | change of fatigue −2, number of patients [2]: 92 | change of fatigue −4, % of patients [2]: (0.50%) | change of fatigue −4, number of patients [2]: 7 | change of fatigue −6, % of patients [2]: (0.00%) | change of fatigue −6, number of patients [2]: 0 | change of pale complexion 0, number of patients [2]: 1049 | change of pale complexion 0, percent of patients [2]: (74.66%) | change of pale complexion 1, number of patients [2]: 316 | change of pale complexion 1, percent of patients [2]: (22.49%) | change of pale complexion −1, number of patients [2]: 40 | change of pale complexion −1, percent of patients [2]: (2.85%) | change of palpitation 0, number of patients [2]: 749 | change of palpitation 0, percent of patients [2]: (53.12%) | change of palpitation 1, number of patients [2]: 493 | change of palpitation 1, percent of patients [2]: (34.96%) | change of palpitation 2, number of patients [2]: 71 | change of palpitation 2, percent of patients [2]: (5.04%) | change of palpitation 3, number of patients [2]: 6 | change of palpitation 3, percent of patients [2]: (0.43%) | change of palpitation −1, number of patients [2]: 87 | change of palpitation −1, percent of patients [2]: (6.17%) | change of palpitation −2, number of patients [2]: 4 | change of palpitation −2, percent of patients [2]: (0.28%) | change of short breath 0, % of patients [2]: (56.60%) | change of short breath 0, number of patients [2]: 798 | change of short breath 2, % of patients [2]: (33.33%) | change of short breath 2, number of patients [2]: 470 | change of short breath 4, % of patients [2]: (3.83%) | change of short breath 4, number of patients [2]: 54 | change of short breath 6, % of patients [2]: (0.50%) | change of short breath 6, number of patients [2]: 7 | change of short breath −2, % of patients [2]: (5.53%) | change of short breath −2, number of patients [2]: 78 | change of short breath −4, % of patients [2]: (0.14%) | change of short breath −4, number of patients [2]: 2 | change of short breath −6, % of patients [2]: (0.07%) | change of short breath −6, number of patients [2]: 1 | change of spontaneous perspiration 0, number of patients [2]: 717 | change of spontaneous perspiration 0, percent of patients [2]: (50.85%) | change of spontaneous perspiration 1, number of patients [2]: 434 | change of spontaneous perspiration 1, percent of patients [2]: (30.78%) | change of spontaneous perspiration 2, number of patients [2]: 105 | change of spontaneous perspiration 2, percent of patients [2]: (7.45%) | change of spontaneous perspiration 3, number of patients [2]: 26 | change of spontaneous perspiration 3, percent of patients [2]: (1.84%) | change of spontaneous perspiration −1, percent of patients [2]: (8.65%) | change of spontaneous perspiration −2, number of patients [2]: 6
